In patent publication US20230270721A1, “INHIBITION OF BAX-MEDIATED CELL DEATH BY ELTROMBOPAG” (Albert Einstein College of Medicine, priority 2020, published 2023):

Columns and labels:
3T3 cells [1] = assay: Caspase 3/7 activation assay, ABT-263 + S63845; assay type: cell-based, murine; details: 1 µM ABT-263 and 1 µM S63845, 4 hr
Experimental: (§1) 3T3 cells were maintained in media identical to that of MEFs. 3T3 cells were seeded (1×10^4 cells/well) in 96-well opaque plates for 18-24 hr. The media was removed and replaced with media lacking FBS, and cells were treated with EO as a 10X stock in H2O at the indicated doses for 2 hr before addition of 10% FBS. Cells were then treated with 1 µM each of ABT-263 and S63845. Caspase 3/7 activation was measured at 4 hr by addition of the Caspase-Glo 3/7 chemiluminescence reagent in accordance with the manufacturer’s protocol (Promega). Luminescence was detected by an F200 PRO microplate reader (TECAN). Percentage caspase activation was normalized to ABT-263 + S63845 alone (100%) and untreated cells (0%). Viability assays were performed at 24 hr by addition of CellTiter-Glo according to the manufacturer’s protocol (Promega). Luminescence was detected by an F200 PRO microplate reader (TECAN). Percentage viability was normalized to untreated cells (100%).
(§2) Next, whether EO is capable of rescuing cell death in cells expressing both BAX and BAK was determined. 3T3 cells, a murine fibroblast cell line, were treated with a combination of BH3-mimetics navitoclax (ABT-263) and S63845, which only in combination cause significant cytotoxicity in fibroblast cells.

BAX-/-MEFs = assay: Caspase 3/7 assay, STS-induced apoptosis, MEFs expressing only BAK; assay type: cell-based, mouse; details: 3 µM STS, 6 hr
Source text: FIGS. 7A, 7B, 7C, 7D, 7E, and 7F are a set of diagrams showing that eltrombopag inhibits BAX translocation and BAX-mediated apoptosis in cells. […] BAX translocation is based on antibody-based detection of BAX and mitochondrial protein TOMM20. Representative confocal micrographs from three independent biological experiments. Scale bar, 20 µm. […] Data represent ±SEM of three independent biological replicates. Two-sided t test, ****P < 0.0001; ***P < 0.001; **P < 0.01; *P < 0.05; ns, P > 0.05. […] Actin and VDAC are loading controls for cytosolic and mitochondrial fractions, respectively. FIGS. 7D and 7E show a caspase 3/7 assay of BAK-/- mouse embryonic fibroblasts (MEFs) (FIG. 7D) and BAX-/-MEFs (FIG. 7E) in response to 3 µM STS and the presence or absence of various doses of EO for 6 hr. […]
It is important to note that THPO-receptor agonist activity of EO is highly specific to the human and chimpanzee THPO-receptors, making mouse cell lines ideal for studying EO modulation of BAX-dependent activity independent of THPO-mediated effects (Erickson-Miller, C. L. et al. Stem Cells 27, 424-430 (2009)). First, mitochondrial cytochrome c release, a hallmark of BAX activation and BAX-dependent apoptosis, was evaluated. […] Next, mitochondrial translocation of cytosolic BAX upon treatment with either BIM BH3 or staurosporine (STS) in BAK KO MEFs was evaluated.

[2] = tested on: human IPSC cardiomyocytes; assay: Apoptosis detection (RealTime Glo) in doxorubicin-treated cardiomyocytes; assay type: cell-based; details: 5 µM Doxorubicin, 10 µM EO
3T3 cells [3] = assay: Cell viability assay (CellTiter-Glo), ABT-263 + S63845; assay type: cell-based, murine; details: 1 µM ABT-263 and 1 µM S63845, 24 hr
Experimental: as §1, §2

BAX R134E = biological target: T1, BAX R134E (Homo sapiens, UniProt Q07812, R134E); assay: Liposomal permeabilization assay, trigger site mutant R134E; assay type: biochemical; details: 250 nM BAX and 5 nM tBID
T1 construct: Human full-length (1-192) wild-type BAX (Q07812); made in house; host or cells: E. coli BL21 (DE3) CodonPlus (DE3)-RIPL
Experimental: Lipids (Avanti Polar Lipids) at the following ratio, phosphatidylcholine 48%, phosphatidylinositol 10%, dioleoyl phosphatidylserine 10%, phosphatidylethanolamine, 28%, and tetraoleoyl cardiolipin 4%, were mixed in a total of 1 mg, dried and resuspended in 10 mM HEPES, pH 7, 200 mM KCI, and 5 mM MgCl2 with 12.5 mM 8-aminonaphthalene-1,3,6-trisulfonic acid (ANTS) dye and 45 mM p-xylene-bis-pyridinium bromide (DPX) quencher (Molecular Probes) using a water bath sonicator. Liposomes were formed by extrusion of the suspension using Avanti Mini-Extruder (Cat # 610000) with polycarbonate membranes of 0.1 µm pore size (Avanti Polar Lipids). […] ANTS/DPX release was quantified based on the increase in fluorescence intensity that occurs when the ANTS fluorophore is separated from the DPX quencher upon release from the liposomes into solution. Fluorescence (λex = 355 nm and λem = 520 nm) was measured at 1 minute intervals at room temperature (22-25° C.) indicated using a Tecan Infinite M1000 plate reader. In the case of heat activation, reactions were set up as described in the absence of tBID or BIM, and experiments were recorded at 42° C. The percentage release of ANTS/DPX at any given time point was calculated as percentage release=((F-F0)/(F100-F0))(100), where F0 and F100 are baseline and maximal fluorescence, respectively. […]

T1 sequence (Q07812 whole entry R134E): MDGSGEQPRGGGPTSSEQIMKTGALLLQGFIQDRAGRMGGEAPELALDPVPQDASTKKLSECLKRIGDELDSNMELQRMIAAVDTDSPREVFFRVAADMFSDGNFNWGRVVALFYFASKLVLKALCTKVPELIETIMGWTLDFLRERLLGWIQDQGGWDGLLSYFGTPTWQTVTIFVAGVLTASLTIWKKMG

Compound: CC1=NN(c2ccc(C)c(C)c2)C(=O)/C1=N\Nc1cccc(-c2cccc(C(=O)O)c2)c1O [EO, eltrombopag]
- apoptosis mediated by caspase 3/7 activity (3T3 cells [1]): significant reduction of apoptosis
- STS-induced apoptosis mediated by caspase 3/7 activity (BAX-/-MEFs): no effect
- apoptosis (cell death) induced by doxorubicin [2]: capable of inhibiting apoptosis
- cell viability (3T3 cells [3]): dose-dependent rescue of cell viability
- inhibition of liposomal release versus BAX WT (BAX R134E): slight trend towards weaker inhibition
